Patent US9980982B2, “HE4 based therapy for malignant disease” (Women & Infants Hospital of Rhode Island, priority 2011, dated 2018)
Entries after “also recorded” stand apart in the source; their conditions may differ.

Columns and labels:
[1] = tested on: SKOV-3 cells; assay: MTS cell viability assay, parental/wild-type SKOV-3 cells; format: cell-based, Human; details: 24 h; paclitaxel 6.25, 12.5 or 25 nM; cisplatin 40 or 80 μM
Description: (§1) Cell growth and viability of cell lines (complete medium, 24 h incubation) was determined by the CellTiter 96® AQueous One Solution Assay (Promega Corp, Madison, Wis.) following the manufacturer's recommendations with modifications (Lange T S et al., 2008 PLOS One, 3(5):e2303). Experiments are expressed as the mean of triplicate determinations (X±SD) of a representative experiment in OD (cell growth) or % of absorbance by drug-treated versus untreated cells [=100%] (cell viability). Cisplatin (CDDP), paclitaxel, doxorubicin and camptothecin (CPT) were purchased from (Sigma Aldrich, St. Louis, Mo.).
(§2) To analyze the potential biological relevance of elevated HE4 production for ovarian cancer cells the efficacy of commonly used anticancer drugs was examined in a viability assay (FIG. 5). SKOV-3 clones or parental cells were treated with cisplatin, paclitaxel, doxorubicin, or camptothecin for 24 h in various concentrations as indicated and the cytotoxicity evaluated.

[2] = tested on: HE4 overexpressing SKOV-3 clones HE4C1, -C3, -C7; assay: MTS cell viability assay, HE4 overexpressing SKOV-3 clones; format: cell-based, Human; details: for response of HE4 overexpressing SKOV-3 clones to drug treatment (viability, words): 24 h, clones HE4C1, -C3, -C7, compared to parental SKOV-3
Description: An HE4 overexpressing vector for stable expression was engineered by inserting a coding sequence of human WAP four-disulfide core domain 2 (WFDC2) cDNA into a multiple cloning site of an eukaryotic expression vector, pCMV6-entry (Origene, Rockville, Md.). Transfection of the constructs in SKOV-3 cells was performed using Lipofectamine 2000 (Invitrogen, Carlsbad, Calif.) according to the manufacturer's instructions. Stably transfected cells were selected by resistance to G-418 (500 μg/ml) (Research Products International, Mount Prospect, Ill.), applied 48 h after transfection and continued during cell culture. G-418 resistant cells were resuspended (density 5 cells/ml) in complete medium/G-418 and seeded as 200 μl/well on a 96 well cell culture plate (Corning, New York, N.Y.). Cells growing from single colonies (cloned; stable transfection) were isolated.
as §1, §2

[3] = tested on: HE4; assay: HE4 levels in SKOV-3 cell lysates and media by sandwich ELISA; format: cell-based, Human; details: cytotoxic agents, 24 hrs, serum free DMEM; versus untreated controls
Description: Various agents were examined by RT-PCR or by a sandwich ELISA. […] HE4 levels in cell lysates and media were evaluated by a sandwich ELISA.
Cells were grown for 24 h in 100 mm cell culture dishes (Corning, New York, N.Y.), supernatant collected and lysates of washed and scraped cells prepared as described previously (Lange T S et al., 2007Chem Biol Drug Design, 70:302-10). Total protein of lysates was quantitated (BioRad protein estimation kit, Hercules, Calif.), and HE4 levels were determined using the HE4 EIA assay (Fujirebio Diagnostics, Malvern, Pa.), a solid-phase, non-competitive immunoassay using two mouse monoclonal antibodies, directed against two epitopes in the C-WFDC domain. Calibration curves were used to measure HE4 concentrations in both cell lysates and culture media allowing for the calculation of production and secretion of HE4 in pmol/g total cellular protein.
FIG. 15 is a bar chart showing that treatment with growth factors and cytokines affect the HE4 levels in ovarian cancer cells. SKOV-3 cells (1 million each) were seeded in 100 mm dishes and incubated overnight. The cells were treated with an array of factors (IL-6, Insulin, TNFa, EGF) and incubated for another 6 hours. The media was collected and cells were lysed using the cell lysis buffer. The HE4 content in the media or in the cell-lysate was examined by a HE4 sandwich ELISA kit.

[4] = tested on: HE4 overexpressing clone-1 xenograft; assay: Cisplatin response and Kaplan-Meier analysis of animals xenografted with HE4 overexpressing clones; format: in vivo, nude mice; details: cisplatin treated, within 14 days
Description: To ascertain the role of HE4 in the progression of ovarian cancer, the xenografts of stable HE4 overexpressing (pCMV6-HE4) clones, SKOV-3 (wild type) and the null vector clones (pCMV6) cells were raised in nude mice (strain 088, Nu/Nu). The tumor size was measured weekly.
The survival rate, tumor size, and the cisplatin or vehicle treatment response of animals xenografted with HE4 overexpressing clone-1, parental SKOV-3, and null vector clones was determined. […] Therefore, HE4 overexpression imparted chemoresistance against cisplatin treatment in animals.

[5] = tested on: HE4; assay: HE4 secretion levels in xenografted animals by EIA ELISA; format: in vivo, nude mice; details: cisplatin 5 mg/kg bwt
Description: Because HE4 is a secretory protein, the secretion levels of HE4 were measured in animals by an EIA ELISA (Fujirebio Inc).

[6] = tested on: PI-3K; assay: In vitro immunoprecipitation lipid kinase (PIP-3) assay; format: cell-based, Human; details: HE4 overexpressing clones, Cisplatin treatment
Description: FIG. 18 is a series of photographs and a schematic illustrating that HE4 regulates EGFR/PI-3K signaling in ovarian cancer cells. […] (C) Mechanistic model of HE4 overexpression induced chemoresistance against Cisplatin via activation of EGFR and PI-3K and its signaling product PIP-3.
HE4 over-expression causes deactivation of pro-survival mitochondrial proteins in SKOV-3 cells. Ovarian cancer cells (SKOV-3) (1 million) were seeded in petri dishes and allowed to adhere overnight in DMEM media supplemented with 10% Fetal Bovine serum without antibiotic. In a separate tube, HE4 cDNA was complexed with lipofectamine (Invitrogen) for 1 min-2 hrs in Optimem media (Invitrogen). HE4 cDNA Lipofectamine complex dissolved in Optimem media were added to the cells. Lipofectamine and no drug were used as control. At different time points (4 hrs, 9 hrs and 24 hr), cells were collected and lysed using lysis buffer. […] Effect of HE4 activation on PIP2-PIP3 conversion was assessed by lipid kinase assay (Yano N. et al. Biochem. J. (2009) 423 (129-143).
A panel of stable HE4 overexpressing ovarian cancer SKOV-3 cell lines were developed by incorporation of pCMV6-HE4 vector. […] The cell viability was measured by MTS assay. Basal reactive oxygen species (ROS) production were measured by FACS analysis. In vitro Phosphoinositide-3-kinase (PI-3K) activity was measured by an immuno-precipitation PIP-3 assay. […]

[7] = tested on: DNA; assay: ICP-MS analysis of Cisplatin binding to DNA in cells; format: cell-based, Human; details: HE4+ clones versus parental SKOV-3 cells
Description: A panel of stable HE4 overexpressing ovarian cancer SKOV-3 cell lines were developed by incorporation of pCMV6-HE4 vector. Inducible HE4 overexpression was achieved by pTet-Off vector (VP 16 vector). The cell viability was measured by MTS assay. Basal reactive oxygen species (ROS) production were measured by FACS analysis. In vitro Phosphoinositide-3-kinase (PI-3K) activity was measured by an immuno-precipitation PIP-3 assay. An Inductively Coupled Plasma-Mass spectrometry (IPC-MS) analysis was carried out to estimate Cisplatin binding to DNA in cells. Mitochondria, rough ER and myelin figures were examined by Electron microscopy (EM). The screening of in-house library of compounds was carried out by MTS assay.

With `N.N.[Cl][Pt][Cl]` [cisplatin] the “effect on viability of wild-type SKOV-3 cells” value [1] was “reduced the viability of wild-type SKOV-3 cells drastically”, the “response of HE4 overexpressing SKOV-3 clones to drug treatment (viability, words)” value [2] was “two clones did not respond; also recorded: significantly reduced response” and the “response of HE4 overexpressing SKOV-3 clones to drug treatment (viability, words)” value ([2]; listed as Cisplatin) was “significantly reduced response”. For the same compound, the “sensitivity of clone HE4C1 to cisplatin” value ([2]; HE4C1, only at 80 μM) was “minor sensitivity”, the “fold chemoresistance against cisplatin” value ([2]; HE4C1 compared to parental and null vector cells) was 2-4 fold and the “fold lower response / loss of efficacy / resistance of HE4 overexpressing SKOV-3 clones compared to parental SKOV-3” value ([2]; cell viability assay) was 20 fold. For the same compound, the “effect on HE4 levels in SKOV-3” value [3] was “suppressed HE4 levels”, the “animals that reached terminal tumor size (≥14 mm)” value [4] was about 60% and the “HE4 levels in cisplatin treated groups versus vehicle treated animals” value [5] was “did not differ significantly; also recorded: not significantly different”. The “effect on PIP-3 synthesis” value [6] was “further enhancement of PIP-3 synthesis” and the “Cisplatin binding to DNA” value [7] was “reduced Cisplatin binding to DNA”.
